A short description of one data set: in vivo. Particulars: rat, po.
Data set [1] deals with catalepsy. Description: Catalepsy Test in Rats. To be noted: for dissociation between the dose effective against methamphetamine and the dose inducing catalepsy / catalepsy: rat, oral, in words; for dissociation between the dose effective against methamphetamine and the dose inducing catalepsy: comparison of anti-methamphetamine and catalepsy tests; for Potency Ratio: catalepsy ED50, relative to haloperidol = 1.0.
Protocol: (§1) After medication, both legs of the rats were put on a horizontal metal bar, 12 cm apart from the floor, and the rats were forced to stand on hind legs. Observation of rat behavior was made 1, 2, 4, 6, 8, 10, 12 and 24 hours later.

For data set [2], the system named is conditioned avoidance (avoidance failure). Description: Conditioned Avoidance Test by Shuttle Box. It counts as in vivo, rats of Wistar strain (male). Particulars: for ED50: read-out: ED50 and Its Confidence Limit; for Potency Ratio: conditioned avoidance ED50, relative to haloperidol = 1.0. The text has this: Use was made of a shuttle box consisted of two chambers divided by a plate with a square hole. The floor of each chamber was made of steel-rod grid which can be charged electrically. The whole apparatus was maintained in a sound proof room. The training schedule was as follows. Each trial was initiated by supplying the sound of buzzer as conditioned stimulus for 3 seconds. Unless the rats escaped to another compartment […] thereafter, the grid floor was electrified for 4 seconds as unconditioned stimulus. Each rat was trained for more than 2 weeks with a daily session of 30 trials at an interval of 60 seconds.
Six rats per group were subjected to 10 consecutive trails 1, 2, 4, 6, 8 and 10 hours after medication, respectively. In this case, a 3-second interval was taken between the termination of the conditioned stimulus and the onset of the unconditioned one. ED50 values at each time were calculated from the average percentages of avoidance failure.

Data set [3] relates to stereotyped behavior induced with methamphetamine hydrochloride. Description: Anti-methamphetamine Test in Rats. Particulars: for ED50: Rattus norvegicus, po, read-out: ED50 and Its Confidence Limit; for Potency Ratio: anti-methamphetamine ED50, relative to haloperidol = 1.0; for suppressing methamphetamine-induced stereotypy: rat, oral, in words.
The test system of data set [4] is gnawing (stereotyped behavior induced by apomorphine). As to the kind of experiment: Anti-apomorphine Test in Rats. In kind it is in vivo, rats of Wistar strain (male). Particulars: for ED50: read-out: ED50 and Its Confidence Limit; for Potency Ratio: anti-apomorphine ED50, relative to haloperidol = 1.0. The protocol:
Six male rats of Wistar strain weighing 120 to 200 g were used at each dosage level. […] The effect against apomorphine was taken as positive when gnawing behavior was not noticed during the observation period of 1 minute. ED50 was calculated from the dose inhibition percet relationship.

The subject of data set [5] is catalepsy. To be noted: rat, in vivo.
Protocol: as §1
A further data set in a line: Catalepsy Test in Rats. To be noted: rat, in vivo, po.
[6] abbreviates: rat, oral, apomorphine 1.25 mg/kg i.v., time of maximum effect 2 hrs.

The ED50 is the dose that gives a 50% effect, or the effect in half of the subjects.

“Also recorded” adds a separate entry of the source. Like-named read-outs stand apart in the source and are kept apart here.

Protocol for in vivo: as §1

Compound `O=C(CCCN1CCC(O)(c2ccc(Cl)cc2)CC1)c1ccc(F)cc1` [Haloperidol, reference compound] came in with an ED50 at 8 h in the data set “in vivo” of 0.88 mg/kg. In the data set with catalepsy [1], the “dissociation between the dose effective against methamphetamine and the dose inducing catalepsy” value (“dissociation between the dose effective” below) is “exhibit both the effects at almost the same dose level; also recorded: exhibit simultaneously both desired and undesired side-effects to almost the same extent at their effective dosages”. The ED50 in data set [2] (Rattus norvegicus, po, 4 h) stood at 0.53 mg/kg; in data set [3] (1 h), 0.48 mg/kg; in data set [4] (Rattus norvegicus, po, 2 h), 0.71 mg/kg. Moreover, the “Potency Ratio” value in the data set on catalepsy [5] was 1.0.
Take `CSc1nc2ccccc2n1C1CCN(CCCC(=O)c2ccc(F)cc2)CC1` [Compound B, 1-[1-(3-(4-fluorobenzoyl)propyl)-4-piperidyl]-2-methylmercaptobenzimidazole]: in “Catalepsy Test in Rats”, the 50% effect level (ED50 at 10 h) was put at a dose of 0.68 mg/kg. Besides, the “Potency Ratio” value with catalepsy [1] came out at 1.3; in data set [2], 1.6; in data set [3] it was 2.8; in data set [4], 1.7. Further, the “dissociation between the dose effective” value with catalepsy [1] is “marked dissociation”. In addition, the catalepsy entry in the data set with catalepsy [1] is given as “produce catalepsy only in higher doses”. Also, the ED50 stood at 0.34 mg/kg in data set [2] (shuttle box, rat, oral, time of maximum effect 4 hrs); 0.17 mg/kg in data set [3] (1 h); 0.41 mg/kg in data set [4] (setting [6]). The suppressing methamphetamine-induced stereotypy entry in data set [3] was “highly effective in suppressing methamphetamine-induced stereotypy”.
For the compound `O=C(CCCN1CCC(n2c(O)nc3ccccc32)CC1)c1ccc(F)cc1` [Benperidol, reference compound], the ED50 at 8 h in the data set “Catalepsy Test in Rats” was 0.92 mg/kg. Further, the “Potency Ratio” value is 0.95 in the data set with catalepsy [1], 0.7 in data set [2], 1.1 in data set [3] and 1.1 in data set [4]. Also, the “dissociation between the dose effective” value with catalepsy [1] is “exhibit both the effects at almost the same dose level; also recorded: exhibit simultaneously both desired and undesired side-effects to almost the same extent at their effective dosages”. Besides, the ED50 in data set [2] (Rattus norvegicus, po, 4 h) was found to be 0.81 mg/kg; in data set [3] (2 h), 0.44 mg/kg; in data set [4] (Rattus norvegicus, po, 1 h), 0.62 mg/kg.
Regarding `O=C(CCCN1CCC(n2c(S)nc3ccccc32)CC1)c1ccc(F)cc1` [Compound A, 1-[1-(3-(4-fluorobenzoyl)propyl)-4-piperidyl]-2-mercaptobenzimidazole], the ED50 at 10 h in the data set “Catalepsy Test in Rats” came to 0.25 mg/kg. Also, the “Potency Ratio” value with catalepsy [1] was found to be 3.5; in data set [2], 8.8; in data set [3], 8.9; in data set [4], 7.5. Besides, the “dissociation between the dose effective” value in the data set on catalepsy [1] is recorded as “marked dissociation”. Besides, the catalepsy entry in the data set on catalepsy [1] is “produce catalepsy only in higher doses”. For the same compound, the ED50 turned out to be 0.06 mg/kg in data set [2] (shuttle box, rat, oral, time of maximum effect 6 hrs); 0.054 mg/kg in data set [3] (2 h); 0.095 mg/kg in data set [4] (setting [6]). Also, the suppressing methamphetamine-induced stereotypy result in data set [3] is reported as “highly effective in suppressing methamphetamine-induced stereotypy”.
